Reference: US8158670B2 (priority 1996, dated 2012)
Entries after “also recorded” stand apart in the source; their conditions may differ.

How the values were obtained:
[1] = test system: target (BO54 and M14) and non-target (HT29) cells; type: cell-based
[2] = test system: Vascular smooth muscle (BO54) cells; type: cell-based, baboon
[3] = test system: vascular smooth muscle cells of balloon-traumatized arteries; type: in vivo, pig; details: pig, in vivo
[4] = test system: vascular smooth muscle cells; assay: In vitro DNA (3H-thymidine) and protein (3H-leucine) synthesis inhibition; type: cell-based; details: 24 hour assays, 5% FBS
Procedure: The ability of various therapeutic agents to inhibit DNA synthesis and protein synthesis in vascular smooth muscle cells was tested. ^3H-leucine and ^3H-thymidine uptake and cytotoxicity assays were conducted in accordance with the following protocols.
5 minute exposure: ^3H-leucine uptake: Vascular smooth muscle cells at 40,000 cells/ml were seeded in sterile 24 well plates at 1 ml/well. The plates were incubated overnight at 37° C., 5% CO2, 95% air in a humidified atmosphere (saturation). Log dilutions of the therapeutic agent of interest were incubated with the vascular smooth muscle cells for 5 minutes or 24 hours. […] Vials were counted on a Beckman LS2800 liquid scintillation counter interfaced with Beckman “Data Capture” software for conversion to a Lotus 1-2-3® file and analysis using Lotus 1-2-3®.
5 minute exposure: ^3H-thymidine uptake: Vascular smooth muscle cells were incubated in complete medium with 5% FBS (Gibco) overnight at 37° C. in a humidified, 5% CO2 environment in sterile 24 well plates. […] The cells were visually scored for viability and cell number. […] Vials were counted on a Beckman LS2800 liquid scintillation counter interfaced with Beckman “Data Capture” software for conversion to a Lotus 1-2-3® file and analysis using Lotus 1-2-3®.

Q: For Pseudomonas exotoxin [PE], which “metabolic activity measured in the MTT assay” value [1] is on record?
A: nonspecific cytotoxicity

Q: How did the “minimum effective dose (MED)” value [2] turn out when CC(=O)O[C@@H]1/C=C\[C@@](C)(O)C(=O)[C@@H](C)C/C=C\[C@H]2[C@H](O)C(C)=C(C)[C@H]3C(Cc4ccccc4)NC(=O)[C@]132 (stereo partly shown) [cytochalasin C] was run?
A: 0.01 µg/mL

Q: How did the “BRDU uptake (cell proliferation)” value [3] turn out when CN[C@@H]1C[C@H]2O[C@@](C)([C@@H]1OC)n1c3ccccc3c3c4c(c5c6ccccc6n2c5c31)C(=O)NC4 [staurosporin] was run?
A: inhibits target cell proliferation; also recorded: inhibited BRDU uptake (i.e., cell proliferation) without killing the vascular smooth muscle cells

Q: And the “therapeutic range: 3H-leucine (protein synthesis) versus 3H-thymidine (DNA synthesis) inhibition” value [4]?
A: exhibits a differential between ^3H-leucine and ^3H-thymidine uptake
